Assay results as given in US20180346513A1, “METHOD FOR OBTAINING TUMOR PEPTIDES AND USES THEREOF” (ISTITUTO EUROPEO DI ONCOLOGIA S.R.L., priority 2015, published 2018).
Where a SMILES comes first, the peptide text is derived from it. The star is where a group is joined. Cbz = O=C(OCc1ccccc1)*

What was measured:
[1] = system: Salmonella SL3261AT; assay: Antibody response (total IgG, ELISA) to Salmonella after immunization with supernatant in IFA; assay type: in vivo, mice; conditions: B16 cells treated with inhibitor before supernatant collection
Method: (§1) Mice were immunized subcutaneusly with 100 μL of emulsion with supernatant containing released peptides and either Freund's Complete Adjuvant (CFA) or Freund's Incomplete Adjuvant (IFA). Nine days after the immunization, mice were killed, popliteal lymph nodes were smashed and cells were plated in flat-bottom 96-well plates and stimulated with PPD (3 μg/mL), OVA protein (30 μg/mL), OVA peptide 323-339 (3 μg/mL) or OVA peptide 257-264 (3 μg/mL). After 72 hours, the supernatant was collected and IFN-γ production was measured by ELISA.
(§2) To evaluate antibody response mice were killed four weeks after immunization, and serum was collected. The antibody titer to Salmonella and B16 antigens was evaluated by ELISA.
(§3) In order to identify the type of released tumor antigens, C57BL/6J mice were immunized subcutaneously with supernatant obtained from Salmonella infected or uninfected B16 cells treated or not with the gap-junction blocker (heptanol) or the proteasome inhibitor (MG132), emulsified with Freund's Incomplete adjuvant (IFA). Four weeks later inventors evaluated the amount of total IgG specific to Salmonella SL3261AT and to mouse melanoma cell line B16 by ELISA.

[2] = system: mouse melanoma cell line B16; assay: Antibody response (total IgG, ELISA) to B16 after immunization with supernatant in IFA; assay type: in vivo, mice; conditions: B16 cells treated with inhibitor before supernatant collection
Method: as §1, §2, §3

[3] = target: T1, connexin hemichannels on the surface of melanoma cells (Mus musculus, UniProt P23242); assay: Adenosine 5'-triphosphate (ATP) bioluminescent assay, extracellular ATP of B16 and B16 OVA cells; assay type: cell-based; conditions: B16 and B16 OVA cells pretreated with heptanol (1 mM)
T1 construct: opening of connexin hemichannels on the surface of melanoma cells; endogenous in cells; host or cells: B16 and B16 OVA mouse melanoma cells
T1 sequence (P23242 2-382): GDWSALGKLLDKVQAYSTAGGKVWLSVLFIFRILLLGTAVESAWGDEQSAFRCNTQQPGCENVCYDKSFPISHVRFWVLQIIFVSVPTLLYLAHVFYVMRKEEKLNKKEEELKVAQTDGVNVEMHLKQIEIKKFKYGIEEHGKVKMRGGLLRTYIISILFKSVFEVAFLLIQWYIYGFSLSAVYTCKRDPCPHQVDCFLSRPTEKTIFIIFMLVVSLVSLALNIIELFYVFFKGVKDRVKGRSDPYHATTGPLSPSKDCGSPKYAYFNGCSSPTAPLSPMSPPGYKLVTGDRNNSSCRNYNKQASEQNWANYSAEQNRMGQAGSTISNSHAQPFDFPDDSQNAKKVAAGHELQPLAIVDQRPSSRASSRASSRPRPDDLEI
Method: Single bacterial colonies were grown overnight and restarted the next day to reach an absorbance at 600 nm ranging between 0.550 and 0.650 corresponding to 0,550-0,650×10^9 colony—forming units (CFUs)/mL. Tumor cells were incubated with or without Gap Junctions blocker, Heptanol (1 mM) for 1 hour and half at 37° C. Then, cells were incubated with bacteria for 1 hour and half at 37° C. at a cell-to-bacteria ratio of 1:50, in the appropriate medium without antibiotics. After incubation, the cells were washed and incubated at 37° C. in medium supplemented with gentamicin ([…]) for 2 hours. […]
Adenosine 5′-triphosphate (ATP) Biolumescent Assay (CellTiter-Glo Luminescent cell viability Assay, Promega) allow to measure the quantity of ATP containing in the samples. […]
Briefly, 100 μL of Assay Mix solution were added to a reaction vial for 3 minutes at room temperature; then rapidly were added […] of sample diluent, mixed and immediately measured the amount of light produced. […]
In order to assess whether Salmonella is able to stimulate the opening of connexin hemichannels on the surface of melanoma cells, inventors measured ATP extracellular concentration using an adenosine 5′-thriphosfate (ATP) bioluminescent assay (as described in Materials and Methods) in Salmonella treated B16 cells. […]

[4] = system: MHC class I complex on the surface of T2 cells; assay: T2 assay for peptide binding (stabilization of HLA-A0201 on T2 cells); assay type: cell-based, human; conditions: tumor cells treated with the gap junction blocker before infection
Method: The next day, the cells were washed with FACS buffer (PBS, 0.1% sodium azide, 5% fetal bovin serum) and incubated for 10 min with blocking buffer (200 μg/mL mouse IgG in FACS buffer). Then, the cells were incubated for 20 minutes at +4° C. with BB7.2, an HLA-A2 conformation specific mouse antibody. The cells were washed twice with FACS buffer and fixed in paraformaldehyde for later acquisition by Accuri C6 Flow Cytometer (BD).
In order to investigate the release of MHC class I peptides by Salmonella infected tumor cells, inventors exploited the ability of exogenous peptides to stabilize the MHC class I complex on the surface of T2 cells. T2 are an HLA-A0201 hybrid human cell line lacking TAP-2 (transporter-associated with antigen processing) and consequently are defective in loading class I molecules with antigenic peptides generated in the cytosol. This leads to very unstable MHC class I molecules on the cell surface. […]
Briefly, inventors infected human melanoma cells SKmel-24 and colorectal adenocarcinoma cells HT29, with Vivofit®, an oral typhoid vaccine that contains live, attenuated cells of the bacteria Salmonella enterica serovar Thyphi (TY21a), and inventors collected the supernatant as described in Materials and Methods. […] Surface expression of HLA-A0201 was evaluated using a conformation-specific mouse antibody, as described in Materials and Methods.

[5] = system: Mart-1 (26-35) specific CTLs; assay: IFN-gamma production of Mart-1 specific CTLs cocultured with moDCs or PDC loaded with supernatant; assay type: cell-based, human
Method: To generate peptide-specific CTLs from PBMC, 106 PBMC HLA-A2+ were cultured in 1 mL of RPMI 1640 medium (supplemented with 5% human serum, 2 mM L-Glutamine, 100 U/mL Penicillin, 100 μg/mL Streptomycin, 10 μg/mL Gentamicin, 10 μg/mL beta-mercaptoethanol and 1% nonessential amino acids) in 24-well-plates. To this, 2×106 Mart-1-pulsed and irradiated (10 Gy) PBMC (HLA-A2) were added as antigen presenting cells in the same medium supplemented with 100 U/mL IL-2. To pulse PBMC they were incubated for 90 minutes at 37° C. in RPMI supplemented with 50 μM of peptide. After incubation, cell were washed twice and irradiated before mixing with the responding cells. The cells were stimulated at intervals of 10 days with irradiated peptide-pulsed autologous PBMC and 100 U/mL IL-2.
To evaluate the release of antigenic peptides inventors infected human melanoma cells SKmel24 and 624.38 with Salmonella TY21a in presence or not of heptanol and the supernatant was harvested as described in Materials and Methods.
After 72 hours of coculture, the amount of IFN-gamma secretion was measured by ELISA.

[6] = system: C57BL/6J mice; assay: In vivo immunization with supernatant in CFA, IFN-gamma after in vitro recall of lymph node cells; conditions: B16 OVA cells treated with heptanol
Method: Mice were immunized subcutaneusly with 100 μL of emulsion with supernatant containing released peptides and either Freund's Complete Adjuvant (CFA) or Freund's Incomplete Adjuvant (IFA). […] After 72 hours, the supernatant was collected and IFN-γ production was measured by ELISA.
To investigate whether the tumor peptides released from infected tumor cells could induce an in vivo immune response, C57BL/6J mice were immunized in the footpad with supernatant, obtained from B16 OVA cells infected or not with Salmonella SL3261AT, emulsified with Freund's complete adjuvant (CFA).
Briefly, nine days after immunization, the popliteal lymph nodes were removed and cells were stimulated in vitro with PPD (Tuberculin purified protein derivated), as a positive control, and OVA protein. After 72 hours of incubation, the amount of IFN-gamma secretion was assessed by ELISA to evaluate the activation of immune cells.

Compound: CC(C)C[C@@H](C=O)NC(=O)[C@H](CC(C)C)NC(=O)[C@H](CC(C)C)NC(=O)OCc1ccccc1 [MG132] (Cbz-Leu-Leu-Leu-aldehyde)
- Effect on antibody response to Salmonella antigens [1]: reduced
- Effect on antibody response to B16 tumor peptides [2]: reduced

Compound: CCCCCCCO [heptanol]
- Effect on Salmonella-induced release of extracellular ATP [3]: significantly reduced
- Effect on the MFI increase by supernatant of infected tumor cells [4]: abolished
- Effect on CTL activation by supernatant of infected melanoma cells ([5]; tumor cells treated with the gap junction blocker): significantly inhibits
- Effect on IFN-gamma production induced by supernatant immunization [6]: reduced
- Effect on antibody response to Salmonella antigens [1]: reduced
- Effect on antibody response to B16 tumor peptides [2]: reduced

Compound: Mart-1 (26-35): Mart-1 (26-35) peptide, positive control
- Response of CTLs after exogenous addition of peptide ([5]; exogenous addition to blocker-treated condition): restored completely the response
